Marks after values point to notes of the source that are not given here. [I] = hypoxanthine (inosine)
How the values were obtained:
[1] = High dosages of IRPs in mice (weight, histology); assay type: in vivo, BALB/c mice; details: for Liver: Liver changes, number of animals / Liver: Mixed cell infiltration, number of animals / Liver: No significan changes, number of animals / Right Kidney: No significant changes, number of animals / Right Kidney: Tubular basophilia, number of animals / Right Kidney: Tubular changes, number of animals: 6 animals; for Heart: No significant changes, number of animals: tissue missing in two animals
Summary of the method: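 BALB/c mice (n=5 per group) received IRPs or saline subcutaneously at 4, 20, 50 or 100 mg/kg on days 1, 4, 7 and 10. Body weight tracked over the study; at termination organ weights, tissue oligonucleotide levels and liver, kidney and heart histology were assessed.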

[2] = tested on: human B-cells; assay: Human B-cells cultured in the presence of IRPs, IL-6
[3] = High dosages of IRPs in rats (weight, deaths, histology); assay type: in vivo, Sprague Dawley rats; details: for Heart: Cell Vacuolation, number of animals / Heart: Hemorrhage, number of animals / Heart: Mononuclear Cell Infiltration, number of animals / Heart: Necrosis, number of animals / Heart: No significant changes, number of animals / Liver: Liver changes, number of animals / Liver: Mixed cell infiltration, number of animals / Liver: Necrosis, number of animals / Liver: No significant changes, number of animals / Liver: Vacuolation, number of animals / Right Kidney: Hydronephrosis, number of animals / Right Kidney: Mineralization, number of animals / Right Kidney: Necrosis, number of animals / Right Kidney: No significant changes, number of animals / Right Kidney: Tubular basophilia, number of animals / Right Kidney: Tubular changes, number of animals: 6 animals
[4] = Monomer and tetramer formation of IRPs, size-exclusion HPLC; assay type: physicochemical; details: 100 mg/mL in PBS and 0.5M KCl, room temperature, five weeks
Procedure: Solutions were prepared of the by mixing 100 mg/mL of the IRP sequences in PBS and 0.5M KCl and storing at room temperature for three to five weeks. The solutions were subsequently analyzed by size-exclusion HPLC.

[5] = 50 mg/kg, 0 = no change to 4 = severe
[6] = 100 mg/kg, 0 = no change to 4 = severe
[7] = rat, 10 mg/kg, 0 = no change to 4 = severe
[8] = rat, 90 mg/kg, 0 = no change to 4 = severe

Substance: 5′-TGC TCC TGG AGI GGT TGT-3′ (DNA TGCTCCTGGAGNGGTTGT; DNA, [I] at 12, backbone and methylation of C not given here) [SEQ ID NO:73]
- Heart: Chronic inflammation, number of animals ([1]; 50 mg/kg): 0
- Heart: Mineralization, number of animals ([1]; 50 mg/kg): 2
- Heart: Mineralization, mean severity score [1, 5]: 3.0
- Liver: Liver changes, mean severity score [1, 5]: 1.0
- Liver: Mixed cell infiltration, mean severity score [1, 5]: 1.0
- Liver: Liver changes, number of animals ([1]; 50 mg/kg): 1
- Liver: Mixed cell infiltration, number of animals ([1]; 50 mg/kg): 2
- Liver: No significan changes, number of animals ([1]; 50 mg/kg): 3
- Right Kidney: No significant changes, number of animals ([1]; 50 mg/kg): 6
- Right Kidney: Tubular basophilia, number of animals ([1]; 50 mg/kg): 0
- Right Kidney: Tubular changes, number of animals ([1]; 50 mg/kg): 0
- Heart: No significant changes, number of animals ([1]; 50 mg/kg): 2**
- Heart: Chronic inflammation, number of animals ([1]; 100 mg/kg): 1
- Heart: Mineralization, number of animals ([1]; 100 mg/kg): 1
- Heart: Chronic inflammation, mean severity score [1, 6]: 2.0
- Heart: Mineralization, mean severity score [1, 6]: 3.0
- Liver: Liver changes, mean severity score [1, 6]: 1.0
- Liver: Mixed cell infiltration, mean severity score [1, 6]: 1.0
- Right Kidney: Tubular changes, mean severity score [1, 6]: 1.0
- Liver: Liver changes, number of animals ([1]; 100 mg/kg): 5
- Liver: Mixed cell infiltration, number of animals ([1]; 100 mg/kg): 1
- Liver: No significan changes, number of animals ([1]; 100 mg/kg): 1
- Right Kidney: No significant changes, number of animals ([1]; 100 mg/kg): 0
- Right Kidney: Tubular basophilia, number of animals ([1]; 100 mg/kg): 0
- Right Kidney: Tubular changes, number of animals ([1]; 100 mg/kg): 6
- Heart: No significant changes, number of animals ([1]; 100 mg/kg): 2**
- Normalized IL-6 Response (Percentage of Positive Control) ([2]; Experiment # 1, Max Conc 4.0 uM): 11%
- Normalized IL-6 Response (Percentage of Positive Control) ([2]; Experiment # 2, Max Conc 4.0 uM): 13%
- Normalized IL-6 Response (Percentage of Positive Control) ([2]; Experiment # 3, Max Conc 4.0 uM): 6%
- Normalized IL-6 Response (Percentage of Positive Control) ([2]; Experiment # 9, Max Conc 2.0 uM): 11%
- B-cell stimulatory activity ([2]; FIG. 1C, percent IL-6 from CpG-ISS): low B-cell stimulatory activity
- toxicity profile ([3]; rat histology): favorable toxicity profiles
- Heart: Cell Vacuolation, number of animals ([3]; rat, 10 mg/kg): 0
- Heart: Hemorrhage, number of animals ([3]; rat, 10 mg/kg): 0
- Heart: Mononuclear Cell Infiltration, number of animals ([3]; rat, 10 mg/kg): 0
- Heart: Necrosis, number of animals ([3]; rat, 10 mg/kg): 0
- Heart: No significant changes, number of animals ([3]; rat, 10 mg/kg): 6
- Liver: Liver changes, number of animals ([3]; rat, 10 mg/kg): 0
- Liver: Mixed cell infiltration, number of animals ([3]; rat, 10 mg/kg): 6
- Liver: Necrosis, number of animals ([3]; rat, 10 mg/kg): 0
- Liver: No significant changes, number of animals ([3]; rat, 10 mg/kg): 0
- Liver: Vacuolation, number of animals ([3]; rat, 10 mg/kg): 0
- Right Kidney: Hydronephrosis, number of animals ([3]; rat, 10 mg/kg): 1
- Right Kidney: Mineralization, number of animals ([3]; rat, 10 mg/kg): 1
- Right Kidney: Necrosis, number of animals ([3]; rat, 10 mg/kg): 0
- Right Kidney: No significant changes, number of animals ([3]; rat, 10 mg/kg): 0
- Right Kidney: Tubular basophilia, number of animals ([3]; rat, 10 mg/kg): 0
- Right Kidney: Tubular changes, number of animals ([3]; rat, 10 mg/kg): 6
- Liver: Mixed cell infiltration, mean severity score [3, 7]: 1.8
- Right Kidney: Hydronephrosis, mean severity score [3, 7]: 2.0
- Right Kidney: Mineralization, mean severity score [3, 7]: 1.0
- Right Kidney: Tubular changes, mean severity score [3, 7]: 1.3
- Heart: Cell Vacuolation, number of animals ([3]; rat, 90 mg/kg): 0
- Heart: Hemorrhage, number of animals ([3]; rat, 90 mg/kg): 0
- Heart: Mononuclear Cell Infiltration, number of animals ([3]; rat, 90 mg/kg): 0
- Heart: Necrosis, number of animals ([3]; rat, 90 mg/kg): 0
- Heart: No significant changes, number of animals ([3]; rat, 90 mg/kg): 6
- Liver: Liver changes, number of animals ([3]; rat, 90 mg/kg): 6
- Liver: Mixed cell infiltration, number of animals ([3]; rat, 90 mg/kg): 2
- Liver: Necrosis, number of animals ([3]; rat, 90 mg/kg): 0
- Liver: No significant changes, number of animals ([3]; rat, 90 mg/kg): 0
- Liver: Vacuolation, number of animals ([3]; rat, 90 mg/kg): 0
- Right Kidney: Hydronephrosis, number of animals ([3]; rat, 90 mg/kg): 0
- Right Kidney: Mineralization, number of animals ([3]; rat, 90 mg/kg): 2
- Right Kidney: Necrosis, number of animals ([3]; rat, 90 mg/kg): 0
- Right Kidney: No significant changes, number of animals ([3]; rat, 90 mg/kg): 0
- Right Kidney: Tubular basophilia, number of animals ([3]; rat, 90 mg/kg): 0
- Right Kidney: Tubular changes, number of animals ([3]; rat, 90 mg/kg): 6
- Liver: Liver changes, mean severity score [3, 8]: 1.9
- Liver: Mixed cell infiltration, mean severity score [3, 8]: 2.0
- Right Kidney: Mineralization, mean severity score [3, 8]: 1.5
- Right Kidney: Tubular changes, mean severity score [3, 8]: 2.0
- fraction in monomer form [4]: 100%
